Reference: ChEMBL document CHEMBL1201862, “PubChem BioAssay data set” (2004)
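The compound was tested at five concentrations on cells cultured in 96-well plates, with a 48-hour exposure period. At the GI50, growth is halved.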 Calls of active or inactive are those of the source. Rule as the data show it: active = GI50 up to about 1.1 µM and inactive = higher.

How the values were obtained:
Assay in all cases: NCI-60 cell line screen, 48 h
XF498 = test system: XF498
M19-MEL = test system: M19-MEL
HOP-18 = test system: HOP-18
RXF 631 = test system: RXF 631
KM-20L2 = test system: KM-20L2
DMS-114 = test system: DMS-114
LXFL 529 = test system: LXFL 529
SNB-78 = test system: SNB-78
DLD-1 = test system: DLD-1

Measured: GI50

COC(=O)C1=C(C)N(NC(N)=O)C2(N)N(NC(N)=O)C(C)=C(C(=O)OC)C12C(=O)OC (stereo not drawn)
inactive: XF498 > 100 µM | M19-MEL > 100 µM | HOP-18 > 100 µM | RXF 631 > 100 µM | KM-20L2 > 100 µM | DMS-114 > 100 µM | LXFL 529 > 100 µM | SNB-78 > 100 µM | DLD-1 > 100 µM

Nc1nc2ncn(CC(O)CO)c2c(=S)[nH]1 (stereo not drawn)
inactive: XF498 23.4 µM | M19-MEL > 100 µM | HOP-18 > 100 µM | RXF 631 > 100 µM | KM-20L2 > 100 µM | DMS-114 > 100 µM | LXFL 529 > 100 µM | SNB-78 > 100 µM | DLD-1 > 100 µM
